What was measured:
[1] = test system: EN (Endometrial Carcinoma); experiment: Bliss excess, mean over the matrix (fraction); higher = more synergy
Procedure, shortened: (§1)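 Cell lines grown in DMEM/F12 or RPMI with 10% FBS were plated in 1536-well plates and held 24 hours at 37°C, 5% CO2 before 72 hours of exposure to two-drug dose matrices, with DMSO typically at 0.2%. CellTiter-Glo 2.0 luminescence gave viability, which was converted to inhibition. Vehicle wells were set to 0 and blank wells to 1. Combination Emax is the second-highest inhibition in the matrix, and Bliss excess is the observed combination effect minus the expected EA + EB − EA·EB, where EA and EB are the single-agent effects.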

[2] = test system: HO-1-u-1 (Oral Cavity Carcinoma); experiment: as above
Procedure, shortened: as §1

[3] = test system: K5 (Thyroid Gland Carcinoma); experiment: as above
Procedure, shortened: as §1

NCI-H2461 (Mesothelioma) = experiment: as above
Procedure, shortened: as §1

NCI-H2795 (Mesothelioma) = experiment: as above
Procedure, shortened: as §1

[4] = test system: PCI-30 (Head and Neck Carcinoma); experiment: as above
Procedure, shortened: as §1

SIMA (Neuroblastoma) [5] = experiment: as above
Procedure, shortened: as §1

[6] = test system: SW1116 (Colorectal Carcinoma); experiment: as above
Procedure, shortened: as §1

[7] = test system: SW1271 (Small Cell Lung Carcinoma); experiment: as above
Procedure, shortened: as §1

SIMA (Neuroblastoma) [8] = experiment: combination Emax (second highest fraction inhibited in the dose matrix, 72 h); higher = more inhibition; extreme values may be limits of the assay
Procedure, shortened: as §1
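Wherever Bliss excess, mean over the matrix is given: after 72 h of two-drug dosing.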

| SMILES | Bliss excess [1] | Bliss excess [2] | Bliss excess [3] | Bliss excess (NCI-H2461 (Mesothelioma)) | Bliss excess (NCI-H2795 (Mesothelioma)) | Bliss excess [4] | Bliss excess (SIMA (Neuroblastoma) [5]) | Bliss excess [6] | Bliss excess [7] | combination Emax (SIMA (Neuroblastoma) [8]) |
| --- | --- | --- | --- | --- | --- | --- | --- | --- | --- | --- |
| Cc1c2c(nn1C)CSCc1cc(n(C)n1)CSc1cc(c3ccccc3c1)OCCCc1c(C(=O)O)n(C)c3c-2c(Cl)ccc13 [AZD5991] + CC1(C)CCC(CN2CCN(c3ccc(C(=O)NS(=O)(=O)c4ccc(NCC5CCOCC5)c([N+](=O)[O-])c4)c(Oc4cnc5[nH]ccc5c4)c3)CC2)=C(c2ccc(Cl)cc2)C1 [Venetoclax] (first compound max 1 µM, 7x7, partner max 1 µM) | -0.0236 | -0.0046 | -0.0325 | -0.0237 | -0.0423 | -0.0376 | 0.107 | -0.0215 | -0.0504 | 0.46 |
| C=CCn1c(=O)c2cnc(Nc3ccc(N4CCN(C)CC4)cc3)nc2n1-c1cccc(C(C)(C)O)n1 [AZD1775] + C1CN(CCC1(C(=O)N[C@@H](CCO)C2=CC=C(C=C2)Cl)N)C3=NC=NC4=C3C=CN4 [Capivasertib] (first compound max 3 µM, partner max 3 µM) | -0.0623 | 0.037 | 0.0493 | -0.0587 | -0.0042 | -0.0677 | -0.0416 | -0.0561 | -0.0161 | 0.94 |
| CC1(C)CCC(CN2CCN(c3ccc(C(=O)NS(=O)(=O)c4ccc(NCC5CCOCC5)c([N+](=O)[O-])c4)c(Oc4cnc5[nH]ccc5c4)c3)CC2)=C(c2ccc(Cl)cc2)C1 [Venetoclax] + Cn1cnc2c(F)c(Nc3ccc(Br)cc3Cl)c(C(=O)NOCCO)cc21 [Selumetinib] (first compound max 1 µM, 7x7, partner max 3 µM) | -0.0325 | -0.0352 | -0.0402 | -0.0175 | -0.0354 | -0.0429 | – | -0.0736 | -0.0255 | – |
| C[C@@H](c1ccc2nccn2c1)n1nnc2ncc(-c3cnn(C)c3)nc21 [Savolitinib] + Cc1c2c(nn1C)CSCc1cc(n(C)n1)CSc1cc(c3ccccc3c1)OCCCc1c(C(=O)O)n(C)c3c-2c(Cl)ccc13 [AZD5991] (first compound max 1 µM, 7x7, partner max 1 µM) | -0.0027 | -0.034 | -0.0085 | -0.048 | 0.008 | -0.0878 | – | -0.0252 | -0.0415 | – |
| Cn1cnc2c(F)c(Nc3ccc(Br)cc3Cl)c(C(=O)NOCCO)cc21 [Selumetinib] + CC(C)n1c(=O)n(C)c2cnc3cc(F)c(-c4ccc(OCCCN5CCCCC5)nc4)cc3c21 [AZD1390] (first compound max 10 µM, 7x7, partner max 0.3 µM) | -0.0086 | -0.0387 | -0.021 | -0.0377 | -0.0439 | -0.0208 | – | -0.0094 | 0.0379 | – |
| CC1(C)CCC(CN2CCN(c3ccc(C(=O)NS(=O)(=O)c4ccc(NCC5CCOCC5)c([N+](=O)[O-])c4)c(Oc4cnc5[nH]ccc5c4)c3)CC2)=C(c2ccc(Cl)cc2)C1 [Venetoclax] + C=CCn1c(=O)c2cnc(Nc3ccc(N4CCN(C)CC4)cc3)nc2n1-c1cccc(C(C)(C)O)n1 [AZD1775] (first compound max 1 µM, partner max 1 µM) | 0.0619 | -0.0256 | -0.0279 | 0.0234 | 0.0657 | 0.0974 | – | -0.0214 | 0.0381 | – |
| CC1(C)CCC(CN2CCN(c3ccc(C(=O)NS(=O)(=O)c4ccc(NCC5CCOCC5)c([N+](=O)[O-])c4)c(Oc4cnc5[nH]ccc5c4)c3)CC2)=C(c2ccc(Cl)cc2)C1 [Venetoclax] + CCN(CCO)CCCOc1ccc2c(Nc3cc(CC(=O)Nc4cccc(F)c4)[nH]n3)ncnc2c1 [AZD2811] (first compound max 1 µM, 7x7, partner max 1 µM) | -0.0017 | -0.0297 | -0.0231 | -0.0587 | -0.0581 | -0.0231 | – | -0.046 | -0.0483 | – |
| CC(=O)c1c(C)c2cnc(Nc3ccc(N4CCNCC4)cn3)nc2n(C2CCCC2)c1=O [Palbociclib] + Cc1c2c(nn1C)CSCc1cc(n(C)n1)CSc1cc(c3ccccc3c1)OCCCc1c(C(=O)O)n(C)c3c-2c(Cl)ccc13 [AZD5991] (first compound max 10 µM, 7x7, partner max 1 µM) | -0.0544 | -0.0069 | -0.046 | -0.056 | 0.0419 | -0.0224 | – | -0.025 | -0.0193 | – |
| CC1(C)CCC(CN2CCN(c3ccc(C(=O)NS(=O)(=O)c4ccc(NCC5CCOCC5)c([N+](=O)[O-])c4)c(Oc4cnc5[nH]ccc5c4)c3)CC2)=C(c2ccc(Cl)cc2)C1 [Venetoclax] + COc1cc(Nc2ncc3c(n2)-c2ccc(Cl)cc2C(c2c(F)cccc2OC)=NC3)ccc1C(=O)O [Alisertib] (first compound max 1 µM, 7x7, partner max 10 µM) | -0.0554 | 0.0246 | -0.0455 | -0.0208 | -0.0656 | -0.0352 | – | 0.0127 | -0.0222 | – |
| NC1(C(=O)N[C@@H](CCO)c2ccc(Cl)cc2)CCN(c2ncnc3[nH]ccc23)CC1 [Capivasertib] + C[C@@H]1COCCN1C2=NC(=NC(=C2)C3(CC3)[S@](=N)(=O)C)C4=C5C=CNC5=NC=C4 [AZD6738] (first compound max 10 µM, 7x7, partner max 10 µM) | -0.039 | -0.0167 | -0.0693 | -0.0866 | -0.0197 | -0.0582 | – | -0.011 | -0.0657 | – |
| Cn1cnc2c(F)c(Nc3ccc(Br)cc3Cl)c(C(=O)NOCCO)cc21 [Selumetinib] + CCN(CCO)CCCOc1ccc2c(Nc3cc(CC(=O)Nc4cccc(F)c4)[nH]n3)ncnc2c1 [AZD2811] (first compound max 10 µM, 7x7, partner max 1 µM) | -0.0862 | 0.0038 | 0.0018 | -0.0026 | -0.0238 | -0.0396 | – | 0.0021 | -0.0324 | – |
| CC(=O)Nc1cccc(-n2c(=O)n(C3CC3)c(=O)c3c(Nc4ccc(I)cc4F)n(C)c(=O)c(C)c32)c1 [Trametinib] + Cc1nc(-c2cn3c(n2)-c2ccc(-c4cnn(C(C)(C)C(N)=O)c4)cc2OCC3)n(C(C)C)n1 [Taselisib] (first compound max 1 µM, 7x7, partner max 10 µM) | 0.0161 | 0.0754 | 0.0183 | 0.0312 | 0.0749 | 0.0485 | – | 0.139 | 0.0896 | – |
| COc1nnc2ccc(N3CCC(c4ccc(OCCN5CCN(C)C(=O)[C@H]5C)cc4)CC3)nn12 [AZD5153] + C=CCn1c(=O)c2cnc(Nc3ccc(N4CCN(C)CC4)cc3)nc2n1-c1cccc(C(C)(C)O)n1 [AZD1775] (first compound max 1 µM, partner max 1 µM) | -0.0753 | -0.0526 | -0.0111 | -0.0344 | -0.0308 | -0.0307 | – | -0.0506 | -0.0763 | – |
| CC1(C)CCC(CN2CCN(c3ccc(C(=O)NS(=O)(=O)c4ccc(NCC5CCOCC5)c([N+](=O)[O-])c4)c(Oc4cnc5[nH]ccc5c4)c3)CC2)=C(c2ccc(Cl)cc2)C1 [Venetoclax] + CN(C)CCCOc1ccc(-c2ccc3ncc4c(c3c2)n(C2CCOCC2)c(=O)n4C)cn1 [AZD0156] (first compound max 1 µM, 7x7, partner max 1 µM) | -0.0832 | -0.003 | -0.0635 | -0.0535 | 0.0332 | -0.0665 | – | -0.0409 | -0.0283 | – |
| COc1cc2ncnc(Nc3ccc(F)c(Cl)c3)c2cc1OCCCN1CCOCC1 [Gefitinib] + CC(C)n1c(=O)n(C)c2cnc3cc(F)c(-c4ccc(OCCCN5CCCCC5)nc4)cc3c21 [AZD1390] (first compound max 10 µM, 7x7, partner max 0.3 µM) | -0.0318 | -0.0212 | -0.0479 | -0.0733 | -0.0631 | -0.0871 | – | -0.0835 | -0.0388 | – |
| COc1nnc2ccc(N3CCC(c4ccc(OCCN5CCN(C)C(=O)[C@H]5C)cc4)CC3)nn12 [AZD5153] + CC1(C)CCC(CN2CCN(c3ccc(C(=O)NS(=O)(=O)c4ccc(NCC5CCOCC5)c([N+](=O)[O-])c4)c(Oc4cnc5[nH]ccc5c4)c3)CC2)=C(c2ccc(Cl)cc2)C1 [Venetoclax] (first compound max 1 µM, 7x7, partner max 1 µM) | -0.0567 | -0.0352 | -0.049 | -0.0438 | -0.041 | -0.0894 | – | -0.036 | -0.108 | – |
| NC1(C(=O)N[C@@H](CCO)c2ccc(Cl)cc2)CCN(c2ncnc3[nH]ccc23)CC1 [Capivasertib] + Cn1cnc2c(F)c(Nc3ccc(Br)cc3Cl)c(C(=O)NOCCO)cc21 [Selumetinib] (first compound max 10 µM, 7x7, partner max 10 µM) | 0.0288 | 0.126 | 0.0944 | -0.0393 | 0.0097 | -0.0097 | – | 0.0203 | 0.0312 | – |
| CC1(C)CCC(CN2CCN(c3ccc(C(=O)NS(=O)(=O)c4ccc(NCC5CCOCC5)c([N+](=O)[O-])c4)c(Oc4cnc5[nH]ccc5c4)c3)CC2)=C(c2ccc(Cl)cc2)C1 [Venetoclax] + C[C@@H](Nc1cc(F)cc(F)c1)c1cc(C(=O)N(C)C)cc2c(=O)cc(N3CCOCC3)oc12 [AZD8186] (first compound max 1 µM, 7x7, partner max 3 µM) | -0.0384 | -0.0183 | -0.111 | 0.0092 | -0.0218 | -0.0292 | – | -0.0358 | -0.055 | – |
| CS(=O)(=O)CCNCc1ccc(-c2ccc3ncnc(Nc4ccc(OCc5cccc(F)c5)c(Cl)c4)c3c2)o1 [Lapatinib] + C[C@@H](Oc1cc(-c2cnn(C3CCNCC3)c2)cnc1N)c1c(Cl)ccc(F)c1Cl [Crizotinib] (first compound max 10 µM, 7x7, partner max 10 µM) | -0.0418 | -0.0264 | -0.0213 | -0.0523 | -0.0569 | -0.0917 | – | -0.0106 | -0.03 | – |
| Cc1c2c(nn1C)CSCc1cc(n(C)n1)CSc1cc(c3ccccc3c1)OCCCc1c(C(=O)O)n(C)c3c-2c(Cl)ccc13 [AZD5991] + Cc1cc2ncnn2cc1Nc1ncc2c(n1)n(C1CCOCC1)c(=O)n2C [AZD7648] (first compound max 1 µM, 7x7, partner max 10 µM) | -0.056 | -0.019 | -0.0537 | -0.0516 | -0.0168 | -0.0572 | – | -0.0466 | -0.0308 | 0.543 |
